{"source": "paper PMC5683375", "about": "“Vasculotide reduces pulmonary hyperpermeability in experimental pneumococcal pneumonia” (Critical Care, 2017)", "key": {"[1]": {"test_system": "human immunoglobulin G (IgG) Fc", "assay": "Tryptophan fluorescence spectroscopy, VT with human IgG Fc (specificity control)", "format": "binding", "details": "recombinant human IgG Fc", "description": "Binding studies were carried out in 96 well plates (Brand-plates pureGrade reference 781607; BRAND GMBH + CO KG, Wertheim, Germany). Mouse Tie2Fc receptor and human immunoglobulin G (IgG) Fc were obtained from R&D Systems (Minneapolis, MN, USA). Dilutions were prepared in HyClone™ Dulbecco’s PBS (GE Healthcare Life Sciences, Mississauga, ON, Canada). The saturation binding curve was prepared with all ligand dilutions and receptors as 2× concentrations. Equal volumes of ligand and receptor were added to generate a final 1× concentration (500 nM Tie2Fc final concentration). Spectroscopic studies were performed on a SpectraMax M2 fluorometer (Molecular Devices, Sunnyvale, CA, USA). Measurements were taken at an excitation wavelength of 295 nm. Emission scans were set from 360 to 450 nm."}, "[2]": {"test_system": "Tie2", "assay": "Tie2 phosphorylation in mouse primary lung microvascular endothelial cells (phospho-Tie2 ELISA)", "format": "cell-based", "details": "VT 1, 10, 100, 1000 ng/ml, 15 minutes, serum-containing media; phospho-Tie2 and total Tie2 ELISA; n = 3-6", "description": "C57BL/6 mouse primary lung microvascular endothelial cells (Cell Biologics, Chicago, IL, USA) were grown in endothelial cell medium with a kit (Cell Biologics) in 20% O2/5% CO2 in a 37 °C humidified chamber and split 1:2 once reaching 90–95% confluency. To examine the activation of Tie2 by VT in mouse primary lung microvascular endothelial cells, 95–100% confluent cells were stimulated with VT (1, 10, 100, and 1000 ng/ml) in serum-containing media for 15 minutes. Human Ang-1 (R&D Systems) was used as a positive control. VT was synthesized, purified, and validated as described before. Cell lysates were collected using lysis buffer recommended in the mouse phospho-Tie-2 enzyme-linked immunosorbent assay (ELISA) kit (R&D Systems); tyrosine-phosphorylated Tie2 and total Tie2 were measured using ELISA kits (mouse phospho-Tie2 and total-Tie2 ELISA kits; R&D Systems). Three to six independent experiments were analyzed.\nSaturation binding data (Fig. 1a–c) are presented as mean ± SEM and were calculated using normalized one-site specific binding and nonlinear regression. For the Tie2 phosphorylation analysis (Fig. 1d), one-way analysis of variance (with Dunnett’s post hoc multiple comparisons test) was used to compare treatment groups with the vehicle-treated group. All other experimental data are expressed as mean, mean + SEM, or mean ± SEM. […]"}, "[3]": {"test_system": "Streptococcus pneumoniae-infected mice", "assay": "Lung histology (edema formation, lung injury) in Streptococcus pneumoniae-infected mice", "format": "in vivo, mouse (C57BL/6 N)", "description": "Identical experiments were performed separately for histological analyses of the lungs. Mice were anesthetized 24 h or 48 h p.i. […] After ligation of the trachea, mouse lungs were removed and immediately immersion-fixed in 4% buffered formalin, embedded in paraffin, cut into 2-μm-thick sections, and stained with hematoxylin and eosin as described elsewhere. The degree of edema formation was assessed semiquantitatively (0 = no edema, 1 = minimal edema, 2 = mild edema, 3 = moderate edema, 4 = severe edema). Three evenly distributed sections per lung were microscopically evaluated to assess edema formation."}, "[4]": {"test_system": "Streptococcus pneumoniae", "assay": "Bacterial growth in vitro (optical density)", "format": "cell-based, Streptococcus pneumoniae serotype 3 (NCTC7978)", "details": "VT 5 µg/ml, log-phase culture, THY media, 37°C, 5% CO2; OD every 30 min for 5 hours; preliminary experiment", "description": "experiment, we investigated if Vasculotide (VT) has a direct effect on the bacterial growth of Streptococcus pneumoniae. Capsulated S. pneumoniae (S. pn.) serotype 3 (NCTC7978) was cultured on Columbia blood agar + 5% sheep blood for 8 h. Single colonies were transferred into THY media to yield OD600 = 0.03-0.04. Liquid cultures were incubated at 37°C and 5% CO2 for 2.5-4 h until the bacteria reached a phase of logarithmic growth (OD600 = 0.3-0.4).\n30 min later, log-phase bacterial cultures were treated with VT (5 µg/ml) or PBS. Optical density was measured every 30 min for further 5 hours. Individual time-proliferation curves"}, "[5]": {"test_system": "murine endotoxemia", "details": "cited from earlier work"}, "[6]": {"test_system": "acute kidney injury", "parameters": "method as in PMID 26911791", "details": "cited from earlier work"}, "[7]": {"test_system": "Streptococcus pneumoniae-infected mice", "assay": "Blood leukocytes in Streptococcus pneumoniae-infected mice", "details": "VT 500 ng i.v.; 24 h and 48 h p.i.; n = 8", "protocol": "(§1) For all experiments, female C57BL/6 N mice (8 to 10 weeks old, weighing 18 to 20 g; Charles River Laboratories, Sulzfeld, Germany) were used. Animals were housed under specific pathogen-free conditions under a 12–h/12-h light/dark cycle with free access to food and water.\nMice were anesthetized with ketamine (80 mg/kg) and xylazine (25 mg/kg) and transnasally inoculated with 5 × 10^6 colony-forming units (CFU) of S. pneumoniae (NCTC7978) in 20 μl of sterile PBS as described before [35]. Sham-infected control mice received 20 μl of sterile PBS. After 22 h, 34 h, and 46 h, body weight and rectal temperature were measured, and different dosages of VT (100, 200, or 500 ng in 100 μl of PBS) or PBS were intravenously injected into the tail vein. Twenty-four or forty-eight hours postinfection (p.i.), mice were anesthetized (160 mg/kg ketamine and 75 mg/kg xylazine) and exsanguinated. […] Subsequently, lungs were flushed, and BAL was performed. […] Blood leukocytes were quantified using a scil Vet ABC Hematology Analyzer (scil animal care company GmbH, Viernheim, Germany)."}, "[8]": {"assay": "Body weight and temperature of Streptococcus pneumoniae-infected mice", "details": "VT i.v. (500 ng in Figure S2), 46 h p.i. in Figure S2, vs infected, PBS-treated"}, "[9]": {"test_system": "Streptococcus pneumoniae-infected mice", "assay": "BALF cytokines (multiplex assay) in Streptococcus pneumoniae-infected mice", "details": "VT 500 ng i.v., n = 8", "protocol": "as §1\n(§2) Mice were anesthetized with ketamine (80 mg/kg) and xylazine (25 mg/kg) and transnasally inoculated with 5 × 10^6 colony-forming units (CFU) of S. pneumoniae (NCTC7978) in 20 μl of sterile PBS as described before [35]. Sham-infected control mice received 20 μl of sterile PBS. After 22 h, 34 h, and 46 h, body weight and rectal temperature were measured, and different dosages of VT (100, 200, or 500 ng in 100 μl of PBS) or PBS were intravenously injected into the tail vein. Twenty-four or forty-eight hours postinfection (p.i.), mice were anesthetized (160 mg/kg ketamine and 75 mg/kg xylazine) and exsanguinated. […] Subsequently, lungs were flushed, and BAL was performed. To determine permeability, HSA (1 mg/75 μl) was intravenously infused 1 h before lung preparation, and the BALF/plasma ratio was calculated as described elsewhere [35]. […] Cytokines from BALF were measured with a multiplex assay (ProcartaPlex; eBioscience), and plasma levels of interleukin (IL)-6 (BD Biosciences) and KC (keratinocyte chemoattractant; R&D Systems) were quantified by ELISA."}, "[10]": {"test_system": "Streptococcus pneumoniae-infected mice", "assay": "Plasma levels of IL-6 and KC (ELISA) in Streptococcus pneumoniae-infected mice", "details": "VT 500 ng i.v., n = 8", "protocol": "as §1, §2"}, "[11]": {"test_system": "Streptococcus pneumoniae-infected mice", "assay": "Lung permeability (HSA BALF/plasma ratio) in Streptococcus pneumoniae-infected mice", "protocol": "as §1, §2"}}, "note": "“Also recorded” adds a separate entry of the source.", "data": [{"substance": "Vasculotide [VT]", "values": [{"measurement": "fluorescence intensity / binding with human IgG Fc", "setting": "[1]", "result": "No saturation of binding is observed; also recorded: no dose-dependent increase in fluorescence intensity"}, {"measurement": "Tie2 phosphorylation", "setting": "[2]", "result": "resulted in Tie2 phosphorylation in a dose-dependent manner; also recorded: dose-dependent phosphorylation of Tie2"}, {"measurement": "lung injury (histology)", "setting": "[3]; VT 500 ng i.v., 24 h and 48 h p.i., n = 3-4, vs PBS", "result": "reduced lung injury"}, {"measurement": "perivascular edema formation, 24 h p.i.", "setting": "[3]; VT 500 ng i.v., 24 h p.i., n = 3-4, vs PBS", "result": "considerably reduced"}, {"measurement": "neutrophil infiltration of perivascular spaces, 48 h p.i.", "setting": "[3]; VT 500 ng i.v., 48 h p.i., n = 3-4", "result": "without differences between the VT-treated and untreated infected groups"}, {"measurement": "alveolar edema formation, 48 h p.i.", "setting": "[3]; VT 500 ng i.v., 48 h p.i., n = 3-4, vs PBS", "result": "diminished; also recorded: almost completely abolished (three of four mice); also recorded: nearly devoid of the additional massive alveolar edema formation"}, {"measurement": "perivascular edema, 48 h p.i.", "setting": "[3]; VT 500 ng i.v., 48 h p.i., n = 3-4, vs untreated (PBS)", "result": "less perivascular edema than the untreated group"}, {"measurement": "edema or other pathological changes in perivascular spaces, sham-infected", "setting": "[3]; sham-infected groups, VT 500 ng i.v. or PBS, 24 h and 48 h p.i.", "result": "no edema formation or other pathological changes"}, {"measurement": "direct antimicrobial activity / bacterial growth", "setting": "[4]", "result": "did not affect bacterial growth in vitro; also recorded: failed to show a direct antimicrobial activity"}, {"measurement": "endotoxemia-induced lung vascular leakage", "setting": "[5]", "result": "prevent endotoxemia-induced lung vascular leakage"}, {"measurement": "protective effect in murine endotoxemia", "setting": "[5]; endotoxemia", "result": "protective effect"}, {"measurement": "barrier disruption in acute kidney injury", "setting": "[6]", "result": "protective effect; also recorded: diminish barrier disruption"}, {"measurement": "blood leukocytes", "setting": "[7]", "result": "unaffected; also recorded: did not differ"}, {"measurement": "body weight", "setting": "[8]", "result": "did not influence; also recorded: not affected"}, {"measurement": "body temperature", "setting": "[8]; rectal", "result": "did not influence; also recorded: not affected"}, {"measurement": "BALF cytokine concentrations (except IL-12p40)", "setting": "[9]; 24 h and 48 h p.i.", "result": "not significantly affected; also recorded: not significantly reduced"}, {"measurement": "IL-12p40 levels in BALF, 48 h p.i.", "setting": "[9]; 48 h p.i.", "result": "reduced; also recorded: decreased"}, {"measurement": "IL-6 and KC plasma levels, trend", "setting": "[10]; 24 h and 48 h p.i.", "result": "slightly decreased by trend"}, {"measurement": "IL-6 plasma level, 24 h p.i.", "setting": "[10]; 24 h p.i.", "result": "significantly reduced"}, {"measurement": "IL-6 plasma level, 48 h p.i.", "setting": "[10]; 48 h p.i.", "result": "did not differ"}, {"measurement": "lung permeability (HSA BALF/plasma ratio), 48 h p.i., second set", "setting": "[11]; VT 500 ng i.v. at 22, 34, 46 h p.i., Fig. 4b, n = 8, vs PBS", "result": "decreased pulmonary barrier disruption; also recorded: Lung permeability was decreased"}, {"measurement": "lung hyperpermeability (HSA BALF/plasma ratio), 48 h p.i.", "setting": "[11]; VT 500 ng i.v. at 22, 34, 46 h p.i., dose-finding experiment (Fig. 3b), n = 5-7, vs PBS", "result": "significant permeability reduction; also recorded: significantly reduced lung hyperpermeability"}, {"measurement": "lung permeability (HSA BALF/plasma ratio), 24 h p.i., second set", "setting": "[11]; VT 500 ng i.v. at 22 h p.i., Fig. 4a, n = 8, vs PBS", "result": "decreased pulmonary barrier disruption; also recorded: Lung permeability was decreased"}, {"measurement": "lung hyperpermeability (HSA BALF/plasma ratio), 24 h p.i.", "setting": "[11]; VT 500 ng i.v. at 22 h p.i., dose-finding experiment (Fig. 3a), n = 5-7, vs PBS", "result": "significant permeability reduction; also recorded: significantly reduced lung hyperpermeability"}, {"measurement": "lung hyperpermeability, dose dependence", "setting": "[11]; VT 100, 200, 500 ng i.v. from 22 h p.i., 24 h and 48 h p.i.", "result": "reduced lung hyperpermeability in a dose-dependent fashion; also recorded: quickly and effectively reduce pulmonary hyperpermeability in a dose-dependent manner"}]}]}
